Source: patent US5872107A, “Treatment of urogenital cancer with boron neutron capture therapy” (Emory University, priority 1997, dated 1999)
“Also recorded” adds a separate entry of the source.

Columns and labels:
[1] = Urinary excretion of unchanged CDU and CDU glucuronide; format: in vivo, Sprague-Dawley rats
Description: On the morning of the experiment, rats were placed in individual metabolism cages. CDU […]) was administered intravenously in 0.1 ml of DMSO to the rats over a one minute period. Blood samples (0.35 ml) were collected prior to and at […], 2, 3, 4, 5, 6, 7 and 8 hour after CDU administration from the cannula into heparinized polypropylene microcentrifuge tubes. Blood volume was replaced with an equal volume of normal saline. Blood samples were immediately centrifuged at 2000 g for 5 minutes and plasma was separated and frozen at -20° C. until analysis. Urine was collected for 24 hour following CDU administration. Urine volume was measured and samples were frozen at -20° C. until analysis.
For the determination of unchanged CDU in urine, urine samples were diluted 1:50 with distilled deionized water and 100 μl of internal standard (50 μg/ml progesterone) was added and injected onto the HPLC. Concentrations of CDU glucuronide in urine were determined after hydrolyzing the glucuronate with β-glucuronidase as previously described. Glucuronide concentrations were calculated as the difference between CDU concentrations measured after hydrolysis and before hydrolysis with β-glucuronidase.

[2] = Plasma protein binding of CDU by equilibrium dialysis; format: in vitro ADME, rat
Description: Protein binding was determined by equilibrium dialysis. Various amounts of CDU were added to drug free rat plasma to yield CDU concentrations ranging from 0.5 to 100 μg/ml. Plexiglass dialysis cells and dialysis membrane (Spectrapor II, Spectrum Medical Industries, Los Angeles, Calif.) were used. Plasma (0.8 ml) containing different concentrations of CDU was dialyzed against 0.8 ml of isotonic sodium phosphate buffer, pH 7.4, in a shaking water bath at 37° C. for 16 hours. The post-dialysis plasma and buffer volumes were measured and samples were frozen at -20° C. until analysis. The binding data was corrected for fluid shifts that occurred during dialysis. Experiments were performed in duplicate.
This concentration range encompassed those observed following intravenous administration of 25 mg/kg CDU to rats. Assuming that the lipophilic compound CDU is bound predominantly by hydrophobic interactions to albumin, the equilibrium association constant for the protein binding of CDU was approximately 4×10^4 M^-1.

[3] = Toxicity study: weight change and survival of normal Swiss mice; format: in vivo, Swiss female mice; details: 30 mg/kg/day i.p.
Description: A toxicity study was conducted on 6-week-old Swiss female mice treated with CDU and CFAU at 30 mg/kg/day. The compounds were prepared in sterile DMSO and injected intraperitoneally (0.1 mL). DMSO and water were used as controls, with the same injection volume as that used for the CDU and CFAU solutions. The dosing schedule used was once a day for 6 days, and the mice were weighed biweekly for 28 days. Results shown in Table 3 somewhat correlate with the cytotoxicity assays in vitro.

[4] = Partition coefficient of CDU in octanol:phosphate buffer (pH 7.4); format: physicochemical
Description: The partition coefficient (P) of CDU was determined in octanol:phosphate buffer (pH 7.4). The octanol and aqueous phases were equilibrated by shaking together for 1 hour at 20° C. Two milliliters (2 ml) of octanol containing 0.5 mg/ml of CDU were shaken with 4 ml of buffer on a horizontal shaker for 12, hour at 25° C. Tubes were centrifuged to separate the phases and both phases were analyzed by HPLC as described below. The partition coefficient was calculated by dividing the CDU concentration in octanol by the CDU concentration in buffer. Results are reported as log P values.
The average octanol:phosphate buffer, pH 7.4, P value was determined to be 3090.

[5] = tested on: xenographed human prostate tumor; test: Accumulation of CDU in xenographed human prostate tumor, brain and serum of nude mice; format: in vivo
Text: The development of the immunodeficient athymic nude mouse has permitted the establishment of human tumors in serial transplantation which provides a representative model of the human disease state. This system, which uses the subcutaneous or subrenal capsule assay is particularly useful in assessing new therapeutic strategies in the treatment of human malignancies and ensures the availability of a constant source of non-attenuated fresh human tumor cells.
Any of these systems can be used to evaluate the extent of accumulation of a selected boron-containing compound in a selected urogenital cancer cell line, or the effect of irradiation of the accumulated compound on that cell line. A detailed example of the evaluation of the accumulation of CDU in a xenographed human prostate tumor obtained from nude mice treated intraperitoneally with 5 mg/kg of tritiated CDU (15 μCi/mouse) is provided in Example 5.
To analyze the concentration of ^10 B-containing compounds in urogenital tissue, the tumor is removed from the animal and then lyophylized. The ^10 B-containing compounds are extracted with a methanol/water solution, and then counted using known methods.
Table 1 provides a summary of the accumulation of CDU in a xenographed human prostate tumor on nude mice treated intraperitoneally with 5 mg/kg of tritiated CDU (15 μCu/mouse). […] The compound partitions in a ratio of approximately 2:1 in the prostate versus blood serum.

[6] = brain, 1 hr after CDU, 5 mg/kg tritiated CDU i.p.
[7] = brain, 2 hr after CDU, 5 mg/kg tritiated CDU i.p.
[8] = serum, 1 hr after CDU, 5 mg/kg tritiated CDU i.p.
[9] = serum, 2 hr after CDU, 5 mg/kg tritiated CDU i.p.
[10] = tumor, 2 hr after CDU, 5 mg/kg tritiated CDU i.p.

Q: Which “unchanged CDU in urine (in words)” value ([1]; 24 hours following 25 mg/kg i.v.) does the source give for 5-carboranyl-2'-deoxyuridine [CDU] here?
A: The value was “No unchanged CDU was detected in urine; also recorded: No unchanged CDU was recovered in urine”.

Q: And the “renal excretion (in words)” value ([1]; rat)?
A: Its value is “not renally excreted to any significant extent”.

Q: And the “renal tubular reabsorption (in words)” value ([1]; rat, inferred from absence of unchanged CDU in urine)?
A: The value was “virtually complete renal tubular reabsorption”.

Q: And the “CDU glucuronide in urine (in words)” value ([1]; urine treated with β-glucuronidase, 25 mg/kg i.v., 25 mg/kg)?
A: The value was “no trace of CDU glucuronide in urine; also recorded: no glucuronide metabolites were detected in urine samples”.

Q: What about the “concentration dependence of plasma protein binding (in words)” value ([2]; 0.5 μg/ml to 100 μg/ml) of the same substance?
A: Its value is “independent of the nucleoside concentration; also recorded: in a linear manner”.

Q: What about the “bound to plasma proteins” value ([2]; 0.5 μg/ml to 100 μg/ml, rat plasma, 960 min) of the same substance?
A: Its value is 95.5%.

Q: What about the “equilibrium association constant for the protein binding” value ([2]; assuming binding predominantly to albumin, 960 min) of the same substance?
A: The value was “approximately 4×10^4 M^-1”.

Q: What about the “average fraction bound to the plasma proteins” value ([2]; rat plasma, 37° C., pH 7.4, 960 min) of the same substance?
A: The value was 0.95±0.02.

Q: What about the “weight loss after 1 week (in words)” value ([3]; CFAU and CDU compared) of the same substance?
A: The value was “comparable weight loss after 1 week”.

Q: What about the “weight recovery at 4 weeks (in words)” value ([3]; surviving animals) of the same substance?
A: The value was “all the surviving animals recovered their weight loss to control untreated levels”.

Q: What about the “% of weight gained or lost on week 1” value ([3]; week 1, once a day for 6 days) of the same substance?
A: Its value is -7.4%.

Q: What about the “% of weight gained or lost on week 2” value ([3]; week 2, once a day for 6 days) of the same substance?
A: The value was 0.1%.

Q: What about the “% of weight gained or lost on week 3” value ([3]; week 3, once a day for 6 days) of the same substance?
A: The value was 4.8%.

Q: What about the “% of weight gained or lost on week 4” value ([3]; week 4, once a day for 6 days) of the same substance?
A: Its value is 11.2%.

Q: And the “survival at week 4, alive/total” value ([3]; week 4, once a day for 6 days)?
A: Its value is 5/5.

Q: What about the “survival at week 4 (%)” value ([3]; week 4, once a day for 6 days, 40320 min) of the same substance?
A: The value was 100%.

Q: What about the “lipophilicity (in words)” value [4] of the same substance?
A: Its value is “highly lipophilic”.

Q: What about the “log P” value [4] of the same substance?
A: Its value is 3.49.

Q: And the “Mean DPM/mg of dry weight, brain, 1 hr” value [5, 6]?
A: The value was 42.8 DPM/mg of dry weight.

Q: And the “pmole/mg of dry weight, brain, 1 hr” value [5, 6]?
A: Its value is 0.32 pmole/mg of dry weight.

Q: And the “Mean DPM/mg of dry weight, brain, 2 hr” value [5, 7]?
A: The value was 23.4 DPM/mg of dry weight.

Q: What about the “pmole/mg of dry weight, brain, 2 hr” value [5, 7] of the same substance?
A: Its value is 0.17 pmole/mg of dry weight.

Q: What about the “accumulation in the prostate cancer cells (in words)” value ([5]; over brain tissue and serum, 5 mg/kg tritiated CDU i.p.) of the same substance?
A: Its value is “significantly accumulates in the prostate cancer cells, and preferentially so, over brain tissue and serum”.

Q: What about the “Mean DPM/mg of dry weight, serum, 1 hr” value [5, 8] of the same substance?
A: Its value is 181.0 DPM/mg of dry weight.

Q: And the “pmole/mg of dry weight, serum, 1 hr” value [5, 8]?
A: The value was 1.33 pmole/mg of dry weight.

Q: And the “Mean DPM/mg of dry weight, serum, 2 hr” value [5, 9]?
A: The value was 111.0 DPM/mg of dry weight.

Q: What about the “pmole/mg of dry weight, serum, 2 hr” value [5, 9] of the same substance?
A: The value was 0.82 pmole/mg of dry weight.

Q: What about the “pmole/mg of dry weight, tumor, 1 hr” value ([5]; tumor, 1 hr after CDU, 5 mg/kg tritiated CDU i.p.) of the same substance?
A: The value was 3.60 pmole/mg of dry weight.

Q: What about the “Mean DPM/mg of dry weight, tumor, 1 hr” value ([5]; tumor, 1 hr after CDU, 5 mg/kg tritiated CDU i.p. (15 μCi/mouse)) of the same substance?
A: The value was 489.1 DPM/mg of dry weight.

Q: And the “Mean DPM/mg of dry weight, tumor, 2 hr” value [5, 10]?
A: Its value is 256.7 DPM/mg of dry weight.

Q: What about the “pmole/mg of dry weight, tumor, 2 hr” value [5, 10] of the same substance?
A: Its value is 1.89 pmole/mg of dry weight.
